The test system of one assay is CD4+ T cells. As to the kind of experiment: Apoptosis induction in peripheral blood CD4+ T cells, resting or anti-CD3 Ab-activated. Particulars: galectin (+), 1 μM rGal-9. Format: cell-based, human. Here is the method:
(§1) To prepare a well plate coated with anti-CD3 Ab, 24 well palates were incubated with TBS solution (pH 8.0) containing 3 μg/mL anti-CD3 Ab (Inmunotech, Marseille, France) per well at 4° C. overnight, and each well was washed with PBS after removing anti-CD3 Ab solution.
(§2) Mononuclear leukocyte fractions were isolated from heparinized blood using HISTOPAQUE (Registered trademark, SIGMA). CD4-Positive Isolation Kit (DYNAL, Oslo, Norway) was used for isolation of CD4+ T cells and Dynabeads M-450 CD8 (Registered trademark, DYNAL, Oslo, Norway) for isolation of CD8+ T cells, respectively, according to the manufacturer's instructions.
(§3) To activate T cells, CD4+ or CD8+ cells at 1×10^6 cells/mL in an RPMI-1640 medium containing 10% FCS were incubated on the plate coated with anti-CD3 Ab for 20 to 24 hr at 37° C. in a 5% CO2 incubator, and incubated with rGal-9 [(His)6-Gal-9(S)] at 37° C. in a 5% CO2 incubator. Then apoptosis assay was conducted as described in (c). That is, cells were incubated with 50 μg/mL PI (SIGMA) at 37° C. for 10 min in the dark. Stained cells were analyzed by flow cytometry (Sandstrom, K. et al., J Immunol Methods, 240: 55 (2000) and Zhang L. et al., Cancer Lett, 142: 129 (1999)).
(§4) Apoptosis assay was also conducted for non-activated (resting) T cells as described above after incubating them with rGal-9 [(His)6-Gal-9(S)] at 37° C. in a 5% Co2 incubator.
(§5) For comparison, galectin-1 and -3 treated cells were analyzed.
(§6) Next, apoptosis induction by Gal-9 in human peripheral blood T cells was examined. T cells were separated into CD4+ and CD8+ T cells followed by incubation in the presence or absence of anti-CD3 Ab. Resting T cells and anti-CD3 Ab-activated T cells were incubated with 1 μM rGal-9.

The test system of a further assay is CD8+ T cells. As to the kind of experiment: Apoptosis induction in peripheral blood CD8+ T cells, resting or anti-CD3 Ab-activated. The following applies: galectin (+), 1 μM rGal-9. In kind it is cell-based, human. Here is the method:
as §1, §2, §3, §4, §5, §6

The subject of a further assay is MOLT-4 cells. As to the kind of experiment: Ca2+ influx, Fluo-3 assay by flow cytometry. In kind it is cell-based, human. The following applies: Fluo-3 assay, FIG. 8. The method, then: Cells (approx. 10^6 to 10^7 cells/mL) in the culture medium (10% FCS, RPMI-1640 containing 10 mM HEPES, pH 7.2) were incubated with fluo-3 AM (final concentration 10 μM, Dojindo, Kumamoto, Japan), an intracellular calcium indicator, at 37° C. for 30 min (Sharp, B. M. et al., Proc. Natl. Acad. Sci. USA, 93: 8294 (1996)). Then the cells were washed and resuspended in the culture medium (final concentration, approx. 2×10^5 cells/mL per sample). Intracellular calcium level was measured by flow cytometry. The resting cells were stimulated at 1 min after their fluorescence intensities were measured.
Next, sequential measurement was restarted until different stimuli were applied. In lactose inhibition assay, cells were stimulated in the presence of 30 mM lactose. Sucrose (30 mM) was used as a control (Sano, H. et al., J. Imnunol., 165: 2156 (2000)). A23187 (calcium ionophore, final concentration 5 ng/mL, Wako, Osaka, Japan) was used as a positive control.
Background: In flow cytometry, cells or beads pass a laser one at a time.

The test system of another assay is Jurkat. As to the kind of experiment: Apoptosis analysis by PI method in Jurkat cells. Format: cell-based. Here is the method:
(§7) MOLT-4 (T cell), Jurkat (T cell), BALL-1 (B cell), THP-1 (acute monocytic leukemia derived cell), and HL60 (acute promyelotic leukemia derived cell) cells were obtained from American Type Culture Collection (ATCC). All the cell lines were maintained in an RPMI-1640 medium (Sigma, St. Louis, US) supplemented with 10% FCS in 5% Co2 at 37° C. Lactose (30 mM) was added to the culture medium to inhibit Gal-9 activity. The same concentration of sucrose was used as a control.
(§8) Cells that underwent apoptosis induction were centrifuged at 4° C. for 5 min at 1,000 rpm, and the cell pellet was resuspended in PBS (300 μL), and adjusted to a final concentration of 70% by gradually adding 100% cold ethanol (700 μL) to the suspended cells with vortexing. […] Stained cells were analyzed by flow cytometry (Sandstrom, K. et al., J Immunol Methods, 240: 55 (2000) and Zhang L. et al., Cancer Lett, 142: 129 (1999)) after removing aggregated cells through a nylon mesh and increasing the cell volume with PBS. […]
(§9) Apoptotic activity was measured by the PI method. […] Subsequently, incubation with PI leads to a reduction in the fluorescence intensity of apoptotic cells. Apoptosis was examined by the percentage of the cells wherein their fluorescence intensity was reduced. […]

The next assay has as its system THP-1. As to the kind of experiment: Apoptosis analysis by PI method in THP-1 cells. In kind it is cell-based. The method, then:
as §7, §8, §9

The test system of another assay is CD8 T Cell. As to the kind of experiment: Apoptosis induction in non-activated normal CD8 T cells (Table 4). In kind it is cell-based. The following applies: 1 μM galectin-9, 1 μM galectin-3. Here is the method: (§10) For example, measurements of apoptosis induction in the presence of 1 μM galectin-9 are as shown in Table 4 below (also 1 μM for galectin-3 in Table 4).

Another assay relates to eosinophils. As to the kind of experiment: Effect of Gal-9 on induced apoptosis of eosinophils. Format: cell-based.
For another assay, the system named is CD4 T Cell. As to the kind of experiment: Apoptosis induction in non-activated normal CD4 T cells (Table 4). Format: cell-based. Particulars: 1 μM galectin-9, 1 μM galectin-3. Here is the method:
as §10

The next assay relates to HL-60. As to the kind of experiment: Apoptosis analysis by PI method in HL60 cells. In kind it is cell-based. The method, then: as §7, §8, §9
The mark [1] stands for this setting: CD3 (+) cells activated on anti-CD3 Ab-coated plates.
Where [2] appears, read: CD3 (−) untreated resting cells.

The results in this text go back to US20060134119A1, “Drugs containing galectin 9” (priority 2003, published 2006).

Turning to “Galectin-9: Recombinant human galectin-9 expressed in E. coli and purified on lactose-agarose”, the “apoptosis induction, CD4” value in the assay on CD4+ T cells (setting [1]) stood at 41.7; in the assay on CD4+ T cells (setting [2]), 10.8. In addition, the “apoptosis induction, CD8” value in the assay with CD8+ T cells (setting [1]) is 25.7; with CD8+ T cells (setting [2]), 17.8. Also, the calcium influx entry in the assay on MOLT-4 cells (A23187 final concentration 5 ng/mL) is listed as “increased calcium influx”. Besides, in the assay on MOLT-4 cells, the “time within which calcium influx increased after addition” value was 10 to 20 s. The “apoptosis induction, Gal9 (+)” value is recorded as 66.6 in the assay with Jurkat (Jurkat, incubation with galectin-9 at least 48 hr or more); 61.2 with THP-1 (THP-1, incubation with galectin-9 at least 48 hr or more); 64.6 in the assay on HL-60 (HL-60, incubation with galectin-9 at least 48 hr or more). The apoptosis induction entry with Jurkat (rGal-9 1 μM, 24 hr, FIG. 3) was “induced”; in the assay with THP-1 (rGal-9 1 μM, 24 hr, FIG. 3), “induced”; in the assay with HL-60 (rGal-9 1 μM, 24 hr, FIG. 3) it was “induced”. In addition, the “apoptosis induction, CD8 T Cell Resting” value in the assay on CD8 T Cell was 1.4. Further, in the assay with eosinophils, the “effect on DEX-induced apoptosis” value is recorded as “inhibits”. The “effect on anti-Fas Ab-induced apoptosis” value with eosinophils is “stimulates”. The “apoptosis induction, CD4 T Cell Resting” value with CD4 T Cell is listed as 1.8.
